In US20260000698A1 (priority 2022, published 2026):

Experiments:
panel of 10 human MTases = assay: Human MTase screening, whole panel; assay type: biochemical; details: 10 μM
Description: To evaluate selectivity over human MTases, compound 3 was screened against a panel of 10 human MTases including histone lysine, protein arginine, DNA and RNA MTases. […] These preliminary results bolstered our premise that it was feasible to design selective Nsp14 MTase because of its unique structure in contrast to the canonical Rossmann fold.
Assay conditions. The human methyltransferase inhibition assays were performed at BPS Bioscience (San Diego, CA, USA). All of the enzymatic reactions were conducted in duplicate at room temperature for 60-960 min in a 50 μL mixture containing proper methyltransferase assay buffer, S-adenosylmethionine (SAM), enzyme, and the test compound. These 50 μL reactions were carried out in wells of a substrate pre-coated plate. […]
After enzymatic reactions, the reaction mixtures were discarded and each of the wells was washed three times with TBST buffer, and slowly shaken with Blocking Buffer for 10 min. […] Immediately, the luminescence of the samples was measured in a BioTek Synergy™ 2 (Winooski, VT, USA) microplate reader using Gen5 software.
Data analysis. […] The luminescence data/alpha counts were analyzed and compared. […] The percent activity in the presence of each compound was calculated according to the following equation: % activity=(C−C0)/(Ce−C0), where C=the luminescence/alpha counts in the presence of the compound.

SMILES: Nc1ncnc2c1ncn2[C@@H]1O[C@H](CNS(=O)(=O)c2ccc3ccccc3c2)[C@@H](O)[C@H]1O [Compound 3, N-(((2R,3S,4R,5R)-5-(6-Amino-9H-purin-9-yl)-3,4-dihydroxytetrahydrofuran-2-yl)methyl)naphthalene-2-sulfonamide]
- inhibition of a panel of 10 human MTases (panel of 10 human MTases): minimal inhibition
- stability in human liver S9 fractions: resistant to phase I and II transformations
